A short description of data set [1]: Determination of pKa of formulated lipids (TNS fluorescence assay in lipid nanoparticles). In kind it is physicochemical. From the text:
As described elsewhere, the pKa of formulated lipids was correlated with the effectiveness of LNPs for delivery of nucleic acids (see Jayaraman et al, Angewandte Chemie, International Edition (2012), 51(34), 8529-8533; Semple et al, Nature Biotechnology 28, 172-176 (2010)). In some embodiments, the preferred range of pKa was ˜5 to ˜7. […] Lipid nanoparticles comprising compound of structure (I)/DSPC/cholesterol/PEG-lipid (50/10/38.5/1.5 or 47.5:10:40.8:1.7 mol %) in PBS at a concentration of 0.4 mM total lipid were prepared using the in-line process as described in Example 1. TNS was prepared as a 100 μM stock solution in distilled water. Vesicles were diluted to 24 μM lipid in 2 mL of buffered solutions containing 10 mM HEPES, 10 mM MES, 10 mM ammonium acetate, and 130 mM NaCl, where the pH ranged from 2.5 to 11. An aliquot of the TNS solution was added to give a final concentration of […] and following vortex mixing fluorescence intensity was measured at room temperature in a SLM Aminco Series 2 Luminescence Spectrophotometer using excitation and emission wavelengths of 321 nm and 445 nm. A sigmoidal best fit analysis was applied to the fluorescence data and the pKa was measured as the pH giving rise to half-maximal fluorescence intensity.

Data set [2] has as its system luciferase expression in the liver. As to the kind of experiment: Luciferase mRNA in vivo evaluation using lipid nanoparticle compositions. On the set-up: species or system mice. Particulars: for Liver Luc (ng luc/g liver), *dosed at 1.0 mg/kg: 1.0 mg mRNA/kg (footnote *); for Liver Luc (ng luc/g liver), *dosed at 1.0 mg/kg / Liver Luc @ 0.5 mg/kg (ng luc/g liver): tail vein injection, liver 4 hours after administration; for Liver Luc @ 0.5 mg/kg (ng luc/g liver): 0.5 mg mRNA/kg; for Relative activity in the luciferase assay relative to MC3: liver luciferase expression 4 hours after tail vein injection, 47.5/10/40.8/1.7 cationic lipid/DSPC/cholesterol/PEG-DMA. The procedure:
A lipid of structure (I), DSPC, cholesterol and PEG-lipid were solubilized in ethanol at a molar ratio of 50:10:38.5:1.5 or 47.5:10:40.8:1.7. Lipid nanoparticles (LNP) were prepared at a total lipid to mRNA weight ratio of approximately 10:1 to 30:1. Briefly, the mRNA was diluted to 0.2 mg/mL in 10 to 50 mM citrate buffer, pH 4. Syringe pumps were used to mix the ethanolic lipid solution with the mRNA aqueous solution at a ratio of about 1:5 to 1:3 (vol/vol) with total flow rates above 15 mL/min. The ethanol was then removed and the external buffer replaced with PBS by dialysis. Finally, the lipid nanoparticles were filtered through a 0.2 μm pore sterile filter.
Studies were performed in 6-8 week old female C57BL/6 mice (Charles River) 8-10 week old CD-1 (Harlan) mice (Charles River) according to guidelines established by an institutional animal were committee (ACC) and the Canadian Council on Animal Cwere (CCAC). Varying doses of mRNA-lipid nanoparticle were systemically administered by tail vein injection and animals euthanized at a specific time point (e.g., 4 hours) post-administration. Liver and spleen were collected in pre-weighed tubes, weights determined, immediately snap frozen in liquid nitrogen and stored at −80° C. until processing for analysis.
For liver, approximately 50 mg was dissected for analyses in a 2 mL FastPrep tubes (MP Biomedicals, Solon Ohio). ¼″ ceramic sphere (MP Biomedicals) was added to each tube and 500 μL of Glo Lysis Buffer—GLB (Promega, Madison Wis.) equilibrated to room temperature was added to liver tissue. Liver tissues were homogenized with the FastPrep24 instrument (MP Biomedicals) at 2×6.0 m/s for 15 seconds. Homogenate was incubated at room temperature for 5 minutes prior to a 1:4 dilution in GLB and assessed using SteadyGlo Luciferase assay system (Promega). Specifically, 50 μL of diluted twassue homogenate was reacted with 50 μL of SteadyGlo substrate, shaken for 10 seconds followed by 5 minute incubation and then quantitated using a CentroXS^3 LB 960 luminometer (Berthold Technologies, Germany). The amount of protein assayed was determined by using the BCA protein assay kit (Pierce, Rockford, Ill.). Relative luminescence units (RLU) were then normalized to total g protein assayed. To convert RLU to ng luciferase a standard curve was generated with QuantiLum Recombinant Luciferase (Promega).
The FLuc mRNA (L-6107 or L-7602) from Trilink Biotechnologies will express a luciferase protein, originally isolated from the firefly, Photinus pyralwas. FLuc was commonly used in mammalian cell culture to measure both gene expression and cell viability. It emits bioluminescence in the presence of the substrate, luciferin. This capped and polyadenylated mRNA was fully substituted with 5-methylcytidine and pseudouridine.
Compounds of structure (I) were formulated using the following molar ratio: 47.5% cationic lipid/10% dwastearoylphosphatidylcholine (DSPC)/40.8% Cholesterol/1.7% PEG lipid (“PEG-DMA” 2-[2-(ω-methoxy(polyethyleneglycol2000)ethoxy]-N,N-ditetradecylacetamide). Relative activity was determined by measuring luciferase expression in the liver 4 hours following administration via tail vein injection as described in Example 1. […]
The cationic lipids shown in Table 2 have previously been tested with nucleic acids. For comparative purposes, these lipids were also used to formulate lipid nanoparticles containing the FLuc mRNA (L-6107) using an in line mixing method, as described in Example 1 and in PCT/US10/22614, which is hereby incorporated by reference in its entirety. Lipid nanoparticles may be formulated using the following molar ratio: 50% Cationic lipid/10% distearoylphosphatidylcholine (DSPC)/38.5% Cholesterol/1.5% PEG lipid (“PEG-DMG”, i.e., 1-(monomethoxy-polyethyleneglycol)-2,3-dimyristoylglycerol, with an average PEG molecular weight of 2000). In alternate embodiments, cationic lipid, DSPC, cholesterol and PEG-lipid are formulated at a molar ratio of approximately 47.5:10:40.8:1.7. […]

Setting [3] is: TNS fluorescence, pH giving half-maximal fluorescence intensity, values in text.

As a reminder, the pKa is the pH at which an ionisable group is half protonated. The low end stands for a group that gives up its proton readily, the high end for a group that holds its proton tightly. `CCCCCCCCCN(CCCCC(=O)N(C)CCO)C(CCCCCCCCC(=O)OCC(CCCC)CCCCCC)CCCCCCCCC(=O)OCC(CCCC)CCCCCC` (stereo not drawn) [Compound 7] had a pKa in data set [1] (Table 3, TNS assay) of 5.83. Besides, in data set [2], the “Liver Luc (ng luc/g liver), *dosed at 1.0 mg/kg” value (shortened to “Liver Luc (ng luc/g liver)”) is listed as 33 ± 18* ng luc/g liver.
On to `CCCCCCCCC(CCCCCC)COC(=O)CCCCCC(CCCCCC(=O)OCC(CCCCCC)CCCCCCCC)N(C)CCO` (stereo not drawn) [Compound 20], for which the pKa in data set [1] (Table 3, TNS assay) is 6.25. Besides, the “Liver Luc @ 0.5 mg/kg (ng luc/g liver)” value in data set [2] is 92 ± 48 ng luc/g liver.
With `CCCCCCC(CCCC)COC(=O)CCCCCCCCC(CCCCCCCCC(=O)OCC(CCCC)CCCCCC)NCCCCC(=O)OCc1ccccc1` (stereo not drawn) [Compound 8], the pKa in data set [1] (Table 3, TNS assay) amounted to 6.09. Also, the “Liver Luc (ng luc/g liver)” value in data set [2] is 550 ± 164* ng luc/g liver.
On to `CCCCC(CC)COC(=O)CCCCCCCCC(CCCCCCCCC(=O)OCC(CC)CCCC)NCCCCC(=O)OCc1ccccc1` (stereo not drawn) [Compound 3], for which the pKa amounted to 6.53 in data set [1] (setting [3]) and 6.38 in data set [1] (Table 3, TNS assay). The “Liver Luc (ng luc/g liver)” value in data set [2] was 1370 ± 674* ng luc/g liver. For the same compound, the “Relative activity in the luciferase assay relative to MC3” value in data set [2] was 3.68.
Consider `CCCCCCC(CCCC)COC(=O)CCCCCCCCC(CCCCCCCCC(=O)OCC(CCCC)CCCCCC)N(CCCCN(C)C)C(=O)C(CC)CCCC` (stereo not drawn) [Compound 4], for which the pKa in data set [1] (setting [3]) is 6.49; in data set [1] (Table 3, TNS assay), 6.37. For the same compound, the “Liver Luc (ng luc/g liver)” value in data set [2] is 1213 ± 702* ng luc/g liver.
In data set [1] (Table 3, TNS assay), `CCCCCCCCC(CCCCCC)COC(=O)CCCCCC(CCCCCC(=O)OCC(CCCCCC)CCCCCCCC)N(C)CCCCO` (stereo not drawn) [Compound 18] displayed a pKa of 6.45. In addition, the “Liver Luc @ 0.5 mg/kg (ng luc/g liver)” value in data set [2] worked out at 1506 ± 429 ng luc/g liver.
For `CCCCCCCCC(CCCCCC)COC(=O)CCCCCC(CCCCCC(=O)OCC(CCCCCC)CCCCCCCC)N(CC)CCCCO` (stereo not drawn) [Compound 15], in that order: 6.12 and 345 ± 141 ng luc/g liver.
For the compound `CCCCCCCCCN(CCCN(C)C(C)=O)C(CCCCCCCCC(=O)OCC(CCCC)CCCCCC)CCCCCCCCC(=O)OCC(CCCC)CCCCCC` (stereo not drawn) [Compound 1], the pKa in data set [1] (setting [3]) came to 4.69.
In data set [1] (Table 3, TNS assay), `CCCCCCC(CCCC)COC(=O)CCCCCCCCC(CCCCCCCCC(=O)OCC(CCCC)CCCCCC)N(CC)CCCCO` (stereo not drawn) [Compound 14] registered a pKa of 6.19. Besides, in data set [2], the “Liver Luc @ 0.5 mg/kg (ng luc/g liver)” value is given as 238 ± 70 ng luc/g liver.
The corresponding values for `CCCCCCC(CCCC)COC(=O)CCCCCCCCC(CCCCCCCCC(=O)OCC(CCCC)CCCCCC)N(C)CCCCO` (stereo not drawn) [Compound 16] are 6.43 and 2004 ± 582 ng luc/g liver.
The compound `CCCCCCCCCN(CCCCC(=O)NCCO)C(CCCCCCCCC(=O)OCC(CCCC)CCCCCC)CCCCCCCCC(=O)OCC(CCCC)CCCCCC` (stereo not drawn) [Compound 6] registered a pKa in data set [1] (Table 3, TNS assay) of 6.1. Besides, in data set [2], the “Liver Luc (ng luc/g liver)” value was 318 ± 222* ng luc/g liver.
For the compound `CCCCCCCCCN(CCCO)C(CCCCCCCCC(=O)OCC(CCCC)CCCCCC)CCCCCCCCC(=O)OCC(CCCC)CCCCCC` (stereo not drawn) [Compound 12], the pKa in data set [1] (setting [3]) is 4.84.
In turn, `CCCCCCC(CCCC)C(=O)OCCCCCCCCCC(CCCCCCCCCOC(=O)C(CCCC)CCCCCC)N(C)CCCO` (stereo not drawn) [Compound 19] had a pKa in data set [1] (Table 3, TNS assay) of 6.31. Besides, in data set [2], the “Liver Luc @ 0.5 mg/kg (ng luc/g liver)” value was 216 ± 85 ng luc/g liver.
Consider `CCCCCCCCC(=O)N(CCCCN(C)C)C(CCCCCCCCC(=O)OCC(CCCC)CCCCCC)CCCCCCCCC(=O)OCC(CCCC)CCCCCC` (stereo not drawn) [Compound 5], for which the pKa in data set [1] (setting [3]) worked out at 6.69. In data set [1] (Table 3, TNS assay), this compound returned a pKa of 6.69. In data set [2], the “Liver Luc (ng luc/g liver)” value is listed as 1422 ± 372* ng luc/g liver and the “Relative activity in the luciferase assay relative to MC3” value was 6.4.
In data set [1] (Table 3, TNS assay), `CCCCCCCCC(CCCCCC)COC(=O)CCCCCC(CCCCCC(=O)OCC(CCCCCC)CCCCCCCC)N(C)CCCO` (stereo not drawn) [Compound 17] came in with a pKa of 6.39. The “Liver Luc @ 0.5 mg/kg (ng luc/g liver)” value in data set [2] worked out at 405 ± 227 ng luc/g liver.
Compound `CCCCCCC(CCCC)COC(=O)CCCCCCCCC(CCCCCCCCC(=O)OCC(CCCC)CCCCCC)N(C)CCCO` (stereo not drawn) [Compound 9] yielded a pKa in data set [1] (Table 3, TNS assay) of 6.29. Also, the “Liver Luc (ng luc/g liver)” value in data set [2] was 7628 ± 3298* ng luc/g liver.
As for `CCCCCCC(CCCC)COC(=O)CCCCCCCCC(CCCCCCCCC(=O)OCC(CCCC)CCCCCC)NCCCO` (stereo not drawn) [Compound 11], the pKa in data set [1] (setting [3]) is 8.04.
Same read-out and setting: the figure for `CCCCCCCCCN(CCCCC(=O)N(C)C)C(CCCCCCCCC(=O)OCC(CC)CCCC)CCCCCCCCC(=O)OCC(CC)CCCC` (stereo not drawn) [Compound 2] is 4.74.
The compound `CCCCCCC(CCCC)COC(=O)CCCCCCCCC(CCCCCCCCC(=O)OCC(CCCC)CCCCCC)N(CC)CCCO` (stereo not drawn) [Compound 13] registered a pKa in data set [1] (Table 3, TNS assay) of 6.03. The “Liver Luc @ 0.5 mg/kg (ng luc/g liver)” value in data set [2] is 514 ± 297 ng luc/g liver.

The values are drawn from patent publication US12065396B2, “Lipids for use in lipid nanoparticle formulations” (ACUITAS THERAPEUTICS, INC., priority 2017, dated 2024).
